“And” between values parts separate entries of the source, which are not always exact repeats. Equal values may be shown once. Read-outs that look alike come from different tables or passages of the source. *1 amine or outer side, *2 acyl side, *3 side chain or, on linkers, in order; H or OH if unused. Where a SMILES comes first, the peptide text is derived from it. Bridges are numbered along the chain shown (N, C = ends). [ ]: non-standard residue; d: D form. X2 = O=C([C@@H]1C[C@H](n2cc([C]34[CH]5[CH]6[CH]7[CH]3[Fe]6754389%10[CH]4[CH]3[CH]8[CH]9[CH]4%10)nn2)CN1[*:1])[*:2]; X17 = O=C([C@@H]1C[C@H](n2cc(C3=CC=C[CH]3[Fe][CH]3C=CC=C3)nn2)CN1[*:1])[*:2]; X15 = CC(C)(C)c1ccc(-c2cn([C@H]3C[C@@H](C(=O)[*:2])N([*:1])C3)nn2)cc1; X18 = O=C([C@@H]1C[C@H](n2cc(-c3ccc(-c4ccccc4)cc3)nn2)CN1[*:1])[*:2]; X1 = O=C([C@@H]1C[C@H](n2cc(-c3ccc(-c4cccs4)cc3)nn2)CN1[*:1])[*:2]; X16 = CC(C)c1ccc(-c2cn([C@H]3C[C@@H](C(=O)[*:2])N([*:1])C3)nn2)cc1; X11 = Cc1ccc(Cc2cn([C@H]3C[C@@H](C(=O)[*:2])N([*:1])C3)nn2)c(C)c1; X19 = Cc1cc(C)cc(Cc2cn([C@H]3C[C@@H](C(=O)[*:2])N([*:1])C3)nn2)c1; X4 = O=C([C@@H]1C[C@H](n2cc(C3C4CC5CC(C4)CC3C5)nn2)CN1[*:1])[*:2]; X6 = O=C([C@@H]1C[C@H](n2cc(-c3ccc(-c4cccs4)s3)nn2)CN1[*:1])[*:2]; X12 = O=C([C@@H]1C[C@H](n2cc(Cc3ccc(Cl)c(F)c3)nn2)CN1[*:1])[*:2]; X13 = O=C([C@@H]1C[C@H](n2cc(-c3cc4ccccc4cn3)nn2)CN1[*:1])[*:2]; X20 = Cc1ccc(Cc2cn([C@H]3C[C@@H](C(=O)[*:2])N([*:1])C3)nn2)cc1C; X10 = Cc1ccc(Cc2cn([C@H]3C[C@@H](C(=O)[*:2])N([*:1])C3)nn2)cc1; X9 = CCc1ccc(-c2cn([C@H]3C[C@@H](C(=O)[*:2])N([*:1])C3)nn2)cc1; X7 = Cc1cccc(Cc2cn([C@H]3C[C@@H](C(=O)[*:2])N([*:1])C3)nn2)c1; X8 = O=C([C@@H]1C[C@H](n2cc(Cc3ccc(Cl)cc3)nn2)CN1[*:1])[*:2]; X3 = Cc1ccccc1Cc1cn([C@H]2C[C@@H](C(=O)[*:2])N([*:1])C2)nn1; X5 = O=C([C@@H]1C[C@H](n2cc(Cc3ccc(I)cc3)nn2)CN1[*:1])[*:2]; X14 = O=C([C@@H]1C[C@H](n2cc(Cc3ccccc3)nn2)CN1[*:1])[*:2]; Suc = O=C(CCC(=O)[*:2])[*:1]
Legend:
wild type gp120 YU-2 = molecular target: T1, wild type gp120 YU-2 (Human immunodeficiency virus type 1 group M subtype B, UniProt P35961); experiment: Isothermal titration calorimetry binding to gp120; set-up: species or system HIV-1
T1 construct: into 30 μM of YU2 full-length gp120 at 25° C; made in house; host or cells: HEK 293F
Description: FIGS. 9A-9C illustrate cPT binding and thermodynamic profile of monomeric wild type gp120 YU-2 for cPTs 3 (FIGS. 9A and 9C) and 36 (FIGS. 9B and 9C). Compound solution, 390 μM (for 3) or 200 μM (for 36), was titrated in 8 μL steps into 30 μM of YU2 full-length gp120 at 25° C. in the reaction chamber of a VP-ITC instrument using 1×PBS buffer at pH 7.3. The resulting heat changes were integrated, and the values obtained were fitted to a quadratic binding equation (one site binding model).
cPT dissociation constants were determined at 25° C. on a VP-Isothermal Titration calorimeter (VP-ITC) system (MicroCal™, GE Healthcare, Freiburg). 200 μM (for 36) or 390 μM (for 3) compound solutions were in 8 μL steps titrated into 30 μM of wild type gp120 YU-2 at 25° C. using 1×PBS buffer at pH 7.3. The resulting heat change upon injection was integrated over a time range of 300 sec, and the obtained values were fitted to a standard single-site binding model using ORIGIN®.

HOS.T4.R5 cells = settings: highest concentrations used 100 μM, 24 h post-exposure
Description: cPTs 36 and 37 were tested for cytotoxicity in vitro with HOS.T4.R5 cells. The latter were seeded at […] per well and incubated with peptides as described elsewhere herein for the infection inhibition assays. Cell viability was determined using the tetrazolium salt premix reagent WST-1 from TaKaRa Bio, Inc., by following the manufacturer's protocol. The formazan product was measured 24 h post-exposure using a microplate reader (Molecular Devices) at an absorbance wavelength of 450 nm.

[1] = read-out: HIV-1Bal.01 infection inhibition IC50, HIV-1Bal.01 pseudovirus, HOS.T4.R5 cells
[2] = read-out: HIV-1 IC50, HIV-1Bal.01 infection inhibition, Table 1

| SMILES | IC50 (HIV-1Bal.01; [1]) | IC50 (HIV-1Bal.01; [2]) [nM] | further results |
| --- | --- | --- | --- |
| CC[C@H](C)[C@@H]1NC(=O)[C@H](CC(N)=O)NC(=O)[C@@H](N)CC(=O)NCCCC[C@@H](C(N)=O)NC(=O)[C@H](Cc2c[nH]c3ccccc23)NC(=O)[C@@H]2C[C@H](n3cc([C]45[CH]6[CH]7[CH]8[CH]4[Fe]786549%10%11[CH]5[CH]4[CH]9[CH]%10[CH]5%11)nn3)CN2C1=O (stereo partly shown) [cPT 3] (H-DNI[X2]WK-NH2; lactam 1-6) |  |  | ΔH (wild type gp120 YU-2; ITC, 25° C.): -5.96 kcal/mol and -5.96 ± 0.13 kcal/mol; ΔS (wild type gp120 YU-2; ITC, 25° C.): 0.00922 kcal/mol; −TΔS (wild type gp120 YU-2; ITC, 25° C.): -2.75 kcal/mol |
| CC[C@H](C)[C@@H]1NC(=O)[C@H](CC(N)=O)NC(=O)[C@@H](N)CC(=O)NCCCC[C@@H](C(N)=O)NC(=O)[C@H](Cc2c[nH]c3ccccc23)NC(=O)[C@@H]2C[C@H](n3cc(C4=CC=C[CH]4[Fe][CH]4C=CC=C4)nn3)CN2C1=O (stereo partly shown) [cPT 3] (H-DNI[X17]WK-NH2; lactam 1-6) |  |  | Kd (wild type gp120 YU-2): 415 nM |
| CC[C@H](C)[C@@H]1NC(=O)[C@H](CC(N)=O)NC(=O)[C@@H](N)CC(=O)NCCCC[C@@H](C(N)=O)NC(=O)[C@H](Cc2c[nH]c3ccccc23)NC(=O)[C@@H]2C[C@H](n3cc(Cc4ccc(C)cc4)nn3)CN2C1=O [cPT 24] (H-DNI[X10]WK-NH2; lactam 1-6 (inferred); N-terminus and C-terminus assumed) | ~180 nM | 180 ± 9 |  |
| CC[C@H](C)[C@@H]1NC(=O)[C@H](CC(N)=O)NC(=O)[C@@H](N)CC(=O)NCCCC[C@@H](C(N)=O)NC(=O)[C@H](Cc2c[nH]c3ccccc23)NC(=O)[C@@H]2C[C@H](n3cc(Cc4ccccc4C)nn3)CN2C1=O [cPT 25] (H-DNI[X3]WK-NH2; lactam 1-6 (inferred); N-terminus and C-terminus assumed) | ~5100 nM | 5100 ± 220 |  |
| CC[C@H](C)[C@@H]1NC(=O)[C@H](CC(N)=O)NC(=O)[C@@H](N)CC(=O)NCCCC[C@@H](C(N)=O)NC(=O)[C@H](Cc2c[nH]c3ccccc23)NC(=O)[C@@H]2C[C@H](n3cc(Cc4cccc(C)c4)nn3)CN2C1=O [cPT 26] (H-DNI[X7]WK-NH2; lactam 1-6 (inferred); N-terminus and C-terminus assumed) | ~220 nM | 220 ± 42 |  |
| CC[C@H](C)[C@@H]1NC(=O)[C@H](CC(N)=O)NC(=O)[C@@H](N)CC(=O)NCCCC[C@@H](C(N)=O)NC(=O)[C@H](Cc2c[nH]c3ccccc23)NC(=O)[C@@H]2C[C@H](n3cc(Cc4ccc(C)cc4C)nn3)CN2C1=O [cPT 27] (H-DNI[X11]WK-NH2; lactam 1-6 (inferred); N-terminus and C-terminus assumed) | ~302 nM | 302 ± 50 |  |
| CC[C@H](C)[C@@H]1NC(=O)[C@H](CC(N)=O)NC(=O)[C@@H](N)CC(=O)NCCCC[C@@H](C(N)=O)NC(=O)[C@H](Cc2c[nH]c3ccccc23)NC(=O)[C@@H]2C[C@H](n3cc(Cc4cc(C)cc(C)c4)nn3)CN2C1=O [cPT 28] (H-DNI[X19]WK-NH2; lactam 1-6 (inferred); N-terminus and C-terminus assumed) | 2000 nM |  |  |
| CC[C@H](C)[C@@H]1NC(=O)[C@H](CC(N)=O)NC(=O)[C@@H](N)CC(=O)NCCCC[C@@H](C(N)=O)NC(=O)[C@H](Cc2c[nH]c3ccccc23)NC(=O)[C@@H]2C[C@H](n3cc(Cc4ccc(C)c(C)c4)nn3)CN2C1=O [cPT 29] (H-DNI[X20]WK-NH2; lactam 1-6 (inferred); N-terminus and C-terminus assumed) | 8000 nM |  |  |
| CC[C@H](C)[C@@H]1NC(=O)[C@H](CC(N)=O)NC(=O)[C@@H](N)CC(=O)NCCCC[C@@H](C(N)=O)NC(=O)[C@H](Cc2c[nH]c3ccccc23)NC(=O)[C@@H]2C[C@H](n3cc(Cc4ccc(Cl)c(F)c4)nn3)CN2C1=O [cPT 32] (H-DNI[X12]WK-NH2; lactam 1-6) | ~7300 nM | 7300 ± 740 |  |
| CC[C@H](C)[C@@H]1NC(=O)[C@H](CC(N)=O)NC(=O)[C@@H](N)CC(=O)NCCCC[C@@H](C(N)=O)NC(=O)[C@H](Cc2c[nH]c3ccccc23)NC(=O)[C@@H]2C[C@H](n3cc(Cc4ccc(I)cc4)nn3)CN2C1=O [cPT 33] (H-DNI[X5]WK-NH2; lactam 1-6) | ~6000 nM | 6000 ± 450 |  |
| CC[C@H](C)[C@@H]1NC(=O)[C@H](CC(N)=O)NC(=O)[C@@H](N)CC(=O)NCCCC[C@@H](C(N)=O)NC(=O)[C@H](Cc2c[nH]c3ccccc23)NC(=O)[C@@H]2C[C@H](n3cc(C4C5CC6CC(C5)CC4C6)nn3)CN2C1=O (stereo partly shown) [compound 18] (H-DNI[X4]WK-NH2; lactam 1-6) | ~1300 nM | 1400 ± 200 |  |
| CC[C@H](C)[C@@H]1NC(=O)[C@H](CC(N)=O)NC(=O)[C@@H](N)CC(=O)NCCCC[C@@H](C(N)=O)NC(=O)[C@H](Cc2c[nH]c3ccccc23)NC(=O)[C@@H]2C[C@H](n3cc(Cc4ccccc4)nn3)CN2C1=O [compound 19] (H-DNI[X14]WK-NH2; lactam 1-6) | ~438 nM | 438 ± 12 |  |
| CCc1ccc(-c2cn([C@H]3C[C@H]4C(=O)N[C@@H](Cc5c[nH]c6ccccc56)C(=O)N[C@H](C(N)=O)CCCCNC(=O)C[C@H](N)C(=O)N[C@@H](CC(N)=O)C(=O)N[C@@H]([C@@H](C)CC)C(=O)N4C3)nn2)cc1 [compound 20] (H-DNI[X9]WK-NH2; lactam 1-6) | ~1200 nM | 1200 ± 500 |  |
| CC[C@H](C)[C@@H]1NC(=O)[C@H](CC(N)=O)NC(=O)[C@@H](N)CC(=O)NCCCC[C@@H](C(N)=O)NC(=O)[C@H](Cc2c[nH]c3ccccc23)NC(=O)[C@@H]2C[C@H](n3cc(-c4ccc(C(C)C)cc4)nn3)CN2C1=O [compound 21] (H-DNI[X16]WK-NH2; lactam 1-6) | ~900 nM | 900 ± 45 |  |
| CC[C@H](C)[C@@H]1NC(=O)[C@H](CC(N)=O)NC(=O)[C@@H](N)CC(=O)NCCCC[C@@H](C(N)=O)NC(=O)[C@H](Cc2c[nH]c3ccccc23)NC(=O)[C@@H]2C[C@H](n3cc(-c4ccc(C(C)(C)C)cc4)nn3)CN2C1=O [compound 22] (H-DNI[X15]WK-NH2; lactam 1-6) | ~350 nM | 350 ± 25 |  |
| CC[C@H](C)[C@@H]1NC(=O)[C@H](CC(N)=O)NC(=O)[C@@H](N)CC(=O)NCCCC[C@@H](C(N)=O)NC(=O)[C@H](Cc2c[nH]c3ccccc23)NC(=O)[C@@H]2C[C@H](n3cc(-c4ccc(-c5ccccc5)cc4)nn3)CN2C1=O [compound 23] (H-DNI[X18]WK-NH2; lactam 1-6) | 269 nM |  |  |
| CC[C@H](C)[C@@H]1NC(=O)[C@H](CC(N)=O)NC(=O)[C@@H](N)CC(=O)NCCCC[C@@H](C(N)=O)NC(=O)[C@H](Cc2c[nH]c3ccccc23)NC(=O)[C@@H]2C[C@H](n3cc(-c4cc5ccccc5cn4)nn3)CN2C1=O [compound 30] (H-DNI[X13]WK-NH2; lactam 1-6) | ~5000 nM | 5000 ± 850 |  |
| CC[C@H](C)[C@@H]1NC(=O)[C@H](CC(N)=O)NC(=O)[C@@H](N)CC(=O)NCCCC[C@@H](C(N)=O)NC(=O)[C@H](Cc2c[nH]c3ccccc23)NC(=O)[C@@H]2C[C@H](n3cc(Cc4ccc(Cl)cc4)nn3)CN2C1=O [compound 31] (H-DNI[X8]WK-NH2; lactam 1-6) | ~1800 nM | 1800 ± 500 |  |
| CC[C@H](C)[C@@H]1NC(=O)[C@H](CC(N)=O)NC(=O)[C@@H](N)CC(=O)NCCCC[C@@H](C(N)=O)NC(=O)[C@H](Cc2c[nH]c3ccccc23)NC(=O)[C@@H]2C[C@H](n3cc(-c4ccc(-c5cccs5)s4)nn3)CN2C1=O [compound 37] (H-DNI[X6]WK-NH2; lactam 1-6) | 405 nM |  | cytotoxicity (cell viability) (HOS.T4.R5 cells): no cytotoxicity was detected |
| CC[C@H](C)[C@@H]1NC(=O)[C@H](CC(N)=O)NC(=O)CCC(=O)NCCCC[C@@H](C(N)=O)NC(=O)[C@H](Cc2c[nH]c3ccccc23)NC(=O)[C@@H]2C[C@H](n3cc(-c4ccc(-c5cccs5)cc4)nn3)CN2C1=O [compound 38] (NI[X1]WK-NH2; linker N-5 via Suc) | ~882 nM and 882 nM |  | fold decrease in potency compared to 36 (HIV-1Bal.01; infection inhibition): about 8 fold |
